Measurements as given in PubChem BioAssay (NCI).
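Growth conditions: 96-well plates. Treatment: test compound, 48 hours, 5 concentrations. Analysis: linear interpolation between bracketing concentrations; unreached endpoints set to highest concentration. The concentration for 50% growth inhibition is given as GI50. TGI: concentration producing complete growth inhibition.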

Key:
Experiment in all cases: NCI-60 cell line screen, 48 h
HOP-92 NSCLC = test system: HOP-92 NSCLC
ACHN renal = test system: ACHN renal
CAKI-1 renal = test system: CAKI-1 renal
K-562 leukemia = test system: K-562 leukemia
MALME-3M melanoma = test system: MALME-3M melanoma
DU-145 prostate = test system: DU-145 prostate
SF-268 CNS = test system: SF-268 CNS
KM12 colon = test system: KM12 colon
UACC-62 melanoma = test system: UACC-62 melanoma
RPMI-8226 leukemia = test system: RPMI-8226 leukemia
IGROV1 ovarian = test system: IGROV1 ovarian
SF-295 CNS = test system: SF-295 CNS
UO-31 renal = test system: UO-31 renal
MOLT-4 leukemia = test system: MOLT-4 leukemia
A549 NSCLC = test system: A549 NSCLC
HCC-2998 colon = test system: HCC-2998 colon
TK-10 renal = test system: TK-10 renal
SW-620 colon = test system: SW-620 colon
LOX IMVI melanoma = test system: LOX IMVI melanoma
SK-MEL-5 melanoma = test system: SK-MEL-5 melanoma
MDA-MB-231 breast = test system: MDA-MB-231 breast
SK-MEL-2 melanoma = test system: SK-MEL-2 melanoma
HL-60(TB) leukemia = test system: HL-60(TB) leukemia
SNB-19 CNS = test system: SNB-19 CNS
A498 renal = test system: A498 renal
SN12C renal = test system: SN12C renal
OVCAR-5 ovarian = test system: OVCAR-5 ovarian
OVCAR-3 ovarian = test system: OVCAR-3 ovarian
MDA-MB-435 = test system: MDA-MB-435
HS 578T breast = test system: HS 578T breast
NCI/ADR-RES ovarian = test system: NCI/ADR-RES ovarian
HCT-116 colon = test system: HCT-116 colon
NCI-H460 lung = test system: NCI-H460 lung
OVCAR-8 ovarian = test system: OVCAR-8 ovarian
SR leukemia = test system: SR leukemia
HT29 colon = test system: HT29 colon
M14 melanoma = test system: M14 melanoma
T-47D breast = test system: T-47D breast
SK-MEL-28 melanoma = test system: SK-MEL-28 melanoma
EKVX NSCLC = test system: EKVX NSCLC
OVCAR-4 ovarian = test system: OVCAR-4 ovarian
UACC-257 melanoma = test system: UACC-257 melanoma
NCI-H522 lung = test system: NCI-H522 lung
HCT-15 colon = test system: HCT-15 colon
U251 CNS = test system: U251 CNS
PC-3 prostate = test system: PC-3 prostate
RXF 393 renal = test system: RXF 393 renal
MCF7 breast = test system: MCF7 breast
786-0 renal = test system: 786-0 renal
SNB-75 CNS = test system: SNB-75 CNS
BT-549 breast = test system: BT-549 breast
SF-539 CNS = test system: SF-539 CNS
CCRF-CEM leukemia = test system: CCRF-CEM leukemia
NCI-H23 lung = test system: NCI-H23 lung
HOP-62 NSCLC = test system: HOP-62 NSCLC
COLO 205 colon = test system: COLO 205 colon
NCI-H226 lung = test system: NCI-H226 lung
SK-OV-3 ovarian = test system: SK-OV-3 ovarian

## COc1ccc(Nc2nc3cc(C(F)(F)F)ccc3nc2C(=O)O)cc1OC
HOP-92 NSCLC
  TGI: 74.9 µM
ACHN renal
  TGI: > 100 µM
CAKI-1 renal
  TGI: 56.3 µM
K-562 leukemia
  TGI: > 100 µM
MALME-3M melanoma
  TGI: > 100 µM
DU-145 prostate
  TGI: > 100 µM
SF-268 CNS
  TGI: > 100 µM
KM12 colon
  TGI: 88.4 µM
UACC-62 melanoma
  TGI: 53.6 µM
RPMI-8226 leukemia
  TGI: 92 µM
IGROV1 ovarian
  TGI: > 100 µM
SF-295 CNS
  TGI: 45.5 µM
UO-31 renal
  TGI: > 100 µM
MOLT-4 leukemia
  TGI: 69.5 µM
A549 NSCLC
  TGI: > 100 µM
HCC-2998 colon
  TGI: > 100 µM
TK-10 renal
  TGI: > 100 µM
SW-620 colon
  TGI: > 100 µM
LOX IMVI melanoma
  TGI: > 100 µM
SK-MEL-5 melanoma
  TGI: 47.9 µM
MDA-MB-231 breast
  TGI: 65.6 µM
SK-MEL-2 melanoma
  TGI: 33.2 µM
HL-60(TB) leukemia
  TGI: 72.2 µM
SNB-19 CNS
  TGI: > 100 µM
A498 renal
  TGI: > 100 µM
SN12C renal
  TGI: 64.2 µM
OVCAR-5 ovarian
  TGI: > 100 µM
OVCAR-3 ovarian
  TGI: 93.3 µM
MDA-MB-435
  TGI: > 100 µM
HS 578T breast
  TGI: > 100 µM
NCI/ADR-RES ovarian
  TGI: > 100 µM
HCT-116 colon
  TGI: 95.7 µM
NCI-H460 lung
  TGI: > 100 µM
OVCAR-8 ovarian
  TGI: > 100 µM
SR leukemia
  TGI: 77 µM
HT29 colon
  TGI: > 100 µM
M14 melanoma
  TGI: > 100 µM
T-47D breast
  TGI: > 100 µM
SK-MEL-28 melanoma
  TGI: > 100 µM
EKVX NSCLC
  TGI: > 100 µM
OVCAR-4 ovarian
  TGI: > 100 µM
UACC-257 melanoma
  TGI: > 100 µM
NCI-H522 lung
  TGI: > 100 µM
HCT-15 colon
  TGI: > 100 µM
U251 CNS
  TGI: > 100 µM
PC-3 prostate
  TGI: > 100 µM
RXF 393 renal
  TGI: 60.2 µM
MCF7 breast
  TGI: 95.3 µM
786-0 renal
  TGI: > 100 µM
SNB-75 CNS
  TGI: > 100 µM
BT-549 breast
  TGI: > 100 µM
SF-539 CNS
  TGI: 62.3 µM
CCRF-CEM leukemia
  TGI: 67.5 µM
NCI-H23 lung
  TGI: 78.9 µM
HOP-62 NSCLC
  TGI: > 100 µM
COLO 205 colon
  TGI: 69.3 µM
NCI-H226 lung
  TGI: 55.6 µM

## Cc1cc(OCc2n[nH]c(=S)n2/N=C/c2ccc(F)cc2)ccc1Cl
HOP-92 NSCLC
  GI50: 32.6 µM
  TGI: > 100 µM
ACHN renal
  GI50: 31.2 µM
  TGI: 87.5 µM
CAKI-1 renal
  GI50: 42.8 µM
  TGI: > 100 µM
K-562 leukemia
  GI50: 20.8 µM
  TGI: 54 µM
MALME-3M melanoma
  GI50: 25.1 µM
  TGI: 56.5 µM
DU-145 prostate
  GI50: 56.7 µM
  TGI: > 100 µM
SF-268 CNS
  GI50: 30 µM
  TGI: 86.7 µM
KM12 colon
  GI50: 22.1 µM
  TGI: 53.8 µM
UACC-62 melanoma
  GI50: 20.1 µM
  TGI: 41.8 µM
RPMI-8226 leukemia
  GI50: 16.7 µM
  TGI: 40.1 µM
IGROV1 ovarian
  GI50: 25.4 µM
  TGI: 82.3 µM
SF-295 CNS
  GI50: 30.1 µM
  TGI: > 100 µM
UO-31 renal
  GI50: 29.5 µM
  TGI: 91.6 µM
MOLT-4 leukemia
  GI50: 19.4 µM
  TGI: 51 µM
A549 NSCLC
  GI50: 26.6 µM
  TGI: 68.6 µM
HCC-2998 colon
  GI50: 20.6 µM
  TGI: 43.7 µM
TK-10 renal
  GI50: 19.1 µM
  TGI: 58 µM
SW-620 colon
  GI50: 34.5 µM
  TGI: > 100 µM
LOX IMVI melanoma
  GI50: 16.1 µM
  TGI: 32.4 µM
SK-MEL-5 melanoma
  GI50: 17.9 µM
  TGI: 35 µM
MDA-MB-231 breast
  GI50: 23.4 µM
  TGI: 62.5 µM
SK-MEL-2 melanoma
  GI50: 23.1 µM
  TGI: 57.2 µM
HL-60(TB) leukemia
  GI50: 18.3 µM
  TGI: 47.2 µM
SNB-19 CNS
  GI50: 27.8 µM
  TGI: 83.8 µM
A498 renal
  GI50: 25.1 µM
  TGI: 68.3 µM
SN12C renal
  GI50: 19.6 µM
  TGI: 37.1 µM
OVCAR-5 ovarian
  GI50: > 100 µM
  TGI: > 100 µM
OVCAR-3 ovarian
  GI50: 22.9 µM
  TGI: 49.4 µM
MDA-MB-435
  GI50: 25.9 µM
  TGI: > 100 µM
HS 578T breast
  GI50: 56.6 µM
  TGI: > 100 µM
NCI/ADR-RES ovarian
  GI50: 29.3 µM
  TGI: 87.3 µM
HCT-116 colon
  GI50: 23.3 µM
  TGI: 53.1 µM
NCI-H460 lung
  GI50: 28.6 µM
  TGI: > 100 µM
OVCAR-8 ovarian
  GI50: 38.8 µM
  TGI: > 100 µM
SR leukemia
  GI50: 18.5 µM
  TGI: 39.7 µM
HT29 colon
  GI50: 18.9 µM
  TGI: 37.7 µM
M14 melanoma
  GI50: 29 µM
  TGI: > 100 µM
T-47D breast
  GI50: 20.5 µM
  TGI: 57.3 µM
SK-MEL-28 melanoma
  GI50: 26.7 µM
  TGI: 74.2 µM
EKVX NSCLC
  GI50: 64.4 µM
  TGI: > 100 µM
OVCAR-4 ovarian
  GI50: 25.4 µM
  TGI: 55.4 µM
UACC-257 melanoma
  GI50: 26.4 µM
  TGI: 62 µM
NCI-H522 lung
  GI50: 21.7 µM
  TGI: 54.8 µM
HCT-15 colon
  GI50: 19.2 µM
  TGI: 47.2 µM
PC-3 prostate
  GI50: 29.2 µM
  TGI: > 100 µM
RXF 393 renal
  GI50: 22.4 µM
  TGI: 46.8 µM
MCF7 breast
  GI50: 33.1 µM
  TGI: > 100 µM
786-0 renal
  GI50: 29.2 µM
  TGI: 87.2 µM
SNB-75 CNS
  GI50: 22.7 µM
  TGI: 69.2 µM
BT-549 breast
  GI50: 48 µM
  TGI: > 100 µM
SF-539 CNS
  GI50: 25.8 µM
  TGI: 57.4 µM
CCRF-CEM leukemia
  GI50: 25.7 µM
  TGI: 70.2 µM
NCI-H23 lung
  GI50: 29.8 µM
  TGI: 94 µM
HOP-62 NSCLC
  GI50: 81 µM
  TGI: > 100 µM
COLO 205 colon
  GI50: 15.9 µM
  TGI: 35.8 µM
SK-OV-3 ovarian
  GI50: 31.7 µM
  TGI: 82.3 µM
NCI-H226 lung
  GI50: 22.4 µM
  TGI: 54.7 µM
